Data set [1] is described as follows: AGE-derived crosslink-cleaving effect (PPD cleavage to benzoic acid, HPLC). The note with it: for Crosslink-Cleaving Activities Relative Ratio: tested samples 100 μg/mL, relative to PTB = 100, means ± SE (n = 3). As for the experimental part: The AGE crosslink-cleaving activity of the same samples was evaluated according to the previously described method by Kato et al. with a slight modification. Briefly, the 1 mg/mL of tested samples prepared with H2O were mixed with 1.13 mM PPD solution in MeOH:50 mM phosphate buffer (pH 7.4) (1:1) and incubated at 37 °C for 4 h. After 4 h, the reaction was stopped with 200 μL of 2 M HCl, then the stopped reaction mixtures were centrifuged at 8200× g for 5 min. The amount of benzoic acid in the supernatant was measured by reversed-phase HPLC. The following conditions were applied: column, InertSustain C18 column (150 mm × 4.6 i.d mm., 5 μm); mobile phase, 50 mM phosphate buffer (pH 2.2):CH3CN (80:20) (solvent A) and 50 mM phosphate buffer (pH 2.2):CH3CN (50:50) (solvent B), the gradient program, 0–20 min (solvent B: 0–25%), 20–25 min (solvent B: 25–100%), 25–36 min (solvent B: 100–25%); column temperature, 40 °C; detection, UV at 230 nm; flow rate, 1.0 mL/min. These cleaving effects were calculated as equivalents to benzoic acid.

Data set [2] has as its system AGE formation in human serum albumin (HSA)/glucose or fructose. Nature of the data set: Inhibitory effect on AGE formation (HSA with glucose or fructose, fluorescence). The format is biochemical. The note with it: 60 °C, 40 h, means ± SE (n = 3). As for the experimental part:
The antiglycation effects of compounds isolated from TBE and several other related compounds were evaluated based on their AGE inhibitory activities as described previously, with slight modifications. Briefly, the sample solution was added to a reaction mixture containing 83.3 mM phosphate buffer (pH 7.2), 2.0 M glucose, 2.0 M fructose, 8.0 mg/mL human serum albumin (HSA), and distilled water (6:1:1:1:1, v/v). As a control, the vehicle was supplemented instead of the sample solution. For each blank, glucose or fructose was replaced with distilled water, and the total volume was set to 1000 μL. After incubation of the sample mixture at 60 °C for 40 h, the solutions were diluted 8-fold with distilled water, dispensed into a black microplate in 200 µL portions, and their fluorescence intensities were measured at excitation and emission wavelengths of 370 and 465 nm, respectively, using a Power Scan HT (DS Pharma Biomedical Co. Ltd., Osaka, Japan). The inhibitory rate was calculated as; Inhibitory rate (%) = 100 − [(S − SB)/(C − CB)] × 100(2) where S is the relative intensity of the sample solution, C is the relative intensity of the control solution, and SB and CB are the intensities of the glucose or fructose-omitted blank solutions. The experimental data are represented as IC50 (μM) values.

The target in data set [3] is α-glucosidase. Set-up: method as in earlier work. The note with it: table lines marked with reference 8; means ± SE (n = 3); read-out: Inhibitory Effects on α-Glucosidase Activity IC50; cited from earlier work.
Data set [4] concerns α-glucosidase. Nature of the data set: α-Glucosidase inhibitory activity (rat intestinal acetone powder, maltose substrate). The format is biochemical. How it is done:
The α-glucosidase inhibitory activity was tested according to the previously described method by Kirino et al. with a slight modification. Rat intestinal acetone powder was mixed with 0.1 M phosphate buffer (pH 7) and centrifuged at 18,500× g and 4 °C for 20 min. The resulting supernatant was collected and used as a glucosidase solution for enzymatic assay. Each sample solution (160 μL) was mixed with 250 mM maltose solution (20 μL) in 0.2 M phosphate buffer (pH 7) and then incubated at 37 °C for 3 min. After incubation, the enzymatic reaction was started by adding glucosidase solution from the rat intestine (20 μL) and the resulting reaction mixtures were further incubated at 37 °C for 15 min. After 15 min, the reaction mixtures were immediately heated at 100 °C for 5 min to stop the reaction followed by cooling on ice for 5 min. The amount of glucose in the reaction mixtures was determined using the F-Kit glucose (Roche diagnostics, Co., Tokyo, Japan) by measuring the absorbance at 340 nm. A control was carried out with 0.1 M phosphate buffer (pH 7) instead of sample solution. For the blank, the glucosidase solution was replaced with distilled water. The glucosidase inhibitory rates of tested samples were calculated as; Inhibitory rate (%) = 100 − [(Asample − Ablank)/(Acontrol − Ablank)] × 100(1) where Asample, Acontrol, and Ablank is the absorbance of the tested sample, control, and blank, respectively. The experimental data are represented as IC50 (μM) values.

Where [5] appears, read: HSA/fructose, read-out: Inhibitory Effects on AGE Formation IC50, Fructose.
Setting [6] is: HSA/glucose, read-out: Inhibitory Effects on AGE Formation IC50, Glucose.

Results on three compounds are retold here after article PMC8510478, “Characterization and Identification of Bioactive Polyphenols in the Trapa bispinosa Roxb. Pericarp Extract” (Molecules, 2021).

Where two headings read alike, the source gives them in different places.

A word on the IC50: it is the point on the concentration scale where inhibition reaches its midpoint. As to `O=C(OC[C@H]1O[C@@H](OC(=O)c2cc(O)c(O)c(O)c2)[C@H](OC(=O)c2cc(O)c(O)c(O)c2)[C@@H](OC(=O)c2cc(O)c(O)c(O)c2)[C@@H]1O)c1cc(O)c(O)c(O)c1` [Compound 5, 1,2,3,6-tetra-O-galloyl-β-D-glucose], in data set [1], the “Crosslink-Cleaving Activities Relative Ratio” value was determined as 209.0 ± 33.7. The IC50 was 300 nM in data set [2] (setting [5]), 300 nM in data set [2] (setting [6]) and above 100000 nM at α-glucosidase [3].

Turning to `O=C(OC1O[C@@H]2COC(=O)c3cc(O)c(O)c(O)c3-c3c(cc(O)c(O)c3O)C(=O)O[C@H]2[C@H](OC(=O)c2cc(O)c(O)c(O)c2)[C@H]1OC(=O)c1cc(O)c(O)c(O)c1)c1cc(O)c(O)c(O)c1` (some centres unmarked) [Compound 7, tellimagrandin II], the “Crosslink-Cleaving Activities Relative Ratio” value in data set [1] came to 230.8 ± 12.2. The IC50 in data set [2] (setting [5]) is 300 nM; in data set [2] (setting [6]), 200 nM; at α-glucosidase [3], above 100000 nM.

Take `O=C(O)c1cc(O)c(O)c(O)c1` [Gallic acid]: in data set [1] (compared with positive control PTB), the “AGE cross-link cleaving activity (in words)” value is “remarkable activities”. Also, the “Crosslink-Cleaving Activities Relative Ratio” value in data set [1] turned out to be 720.1 ± 54.1. The IC50 in data set [2] (setting [5]) is 27000 ± 2600 nM; in data set [2] (setting [6]) it was 14700 ± 2000 nM; at α-glucosidase [3] it was above 100000 nM. For the same compound, the “α-Glucosidase inhibitory activity (in words)” value in the data set with α-glucosidase [4] is “little effect”.
